Here are results for eight molecules from US20170022171A1, “2,5-DISUBSTITUTED CYCLOPENTANECARBOXYLIC ACIDS AND THEIR USE” (Bayer Pharma Aktiengesellschaft, priority 2014, published 2017).

Common to all, as to assay type: biochemical
One test addresses T1, mouse MMP-2 (Mus musculus, UniProt P33434).
T1 construct: purchased R&D Systems 924-MP
The test is described as follows: In vitro mouse MMP-2 inhibition test. The text has this: (§1) The MMP-mediated amidolytic cleavage of a suitable peptide substrate leads to an increase in fluorescent light here too. The signal intensity of the fluorescent light is directly proportional to the enzyme activity. The active concentration of a test compound at which half the enzyme is inhibited (50% signal intensity of the fluorescent light) is reported as the IC50 value.
(§2) Recombinant mouse MMP-2 (from R&D Systems, 924-MP) is chemically activated in accordance with the manufacturer's instructions using APMA. 1 μl of the test compound to be analysed (as a solution in DMSO, suitable concentrations, for example, 1 nM to 30 μM) is pipetted into 24 μl of activated enzyme (final concentration, for example, 0.1 nM) in reaction buffer (50 mM Tris/HCl pH 7.5, 10 mM CaCl2, 150 mM NaCl, 0.05% Brij®-35) in a white 384-hole microtiter plate (MTP). The enzymatic reaction is started by adding the intramolecularly quenched Mca-Pro-Leu-Gly-Leu-Dpa(Dnp)-Ala-Arg-NH2 substrate (final concentration, for example, 10 μM; R&D Systems, ES-001), so as to result in a total test volume of 50 The course of the MMP-2 reaction is measured by measuring the fluorescence intensity (excitation 320 nm, emission 410 nm) over a suitable period of time (for example over 120 min at a temperature of 32° C.).

A further test concerns the target T2, mouse MMP-3 (Mus musculus, UniProt P28862).
T2 construct: purchased R&D Systems 548-MP
The test is described as follows: In vitro mouse MMP-3 inhibition test.
From the text: as §1
(§3) Recombinant mouse MMP-3 (from R&D Systems, 548-MP) is chemically activated in accordance with the manufacturer's instructions using APMA. 1 μl of the test compound to be analysed (as a solution in DMSO, suitable concentrations, for example, 1 nM to 30 μM) is pipetted into 24 μl of activated enzyme (final concentration, for example, 0.5 nM) in reaction buffer (50 mM Tris/HCl pH 7.5, 10 mM CaCl2, 150 mM NaCl, 0.05% Brij®-35) in a white 384-hole microtiter plate (MTP). The enzymatic reaction is started by adding the intramolecularly quenched Mca-Arg-Pro-Lys-Pro-Val-Glu-Nval-Trp-Arg-Lys(Dnp)-NH2 substrate (final concentration, for example, 5 μM; R&D Systems, ES-002), so as to result in a total test volume of 50 μl. The course of the MMP-3 reaction is measured by measuring the fluorescence intensity (excitation 320 nm, emission 410 nm) over a suitable period of time (for example over 120 min at a temperature of 32° C.).

In a further test the target is T3, mouse MMP-7 (Mus musculus, UniProt Q10738).
T3 construct: purchased R&D Systems 2967-MP
T3 sequence (Q10738 95-264): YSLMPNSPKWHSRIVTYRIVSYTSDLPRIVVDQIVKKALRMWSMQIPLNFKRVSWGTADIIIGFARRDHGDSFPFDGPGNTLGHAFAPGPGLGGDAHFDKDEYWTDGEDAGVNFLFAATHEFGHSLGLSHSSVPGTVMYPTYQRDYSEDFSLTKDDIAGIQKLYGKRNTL
The test is described as follows: In vitro mouse MMP-7 inhibition test.
From the text: as §1
as §3, with “MMP-7” for “MMP-3”, “2967-MP)” for “548-MP)”, “Mca-Lys-Pro-Leu-Gly-Leu-Dpa(Dnp)-Ala-Arg-NH2” for “Mca-Arg-Pro-Lys-Pro-Val-Glu-Nval-Trp-Arg-Lys(Dnp)-NH2”, “ES-010),” for “ES-002),”

A further test addresses T4, mouse MMP-9 (Mus musculus, UniProt P41245).
T4 construct: purchased R&D Systems 909-MP
As to the kind of experiment: In vitro mouse MMP-9 inhibition test.
From the text: as §1
as §2, with “mouse MMP-9” for “mouse MMP-2”, “Systems, 909-MP)” for “Systems, 924-MP)”, “example, 5” for “example, 10”, “the MMP-9” for “the MMP-2”

T1 sequence (P33434 110-662): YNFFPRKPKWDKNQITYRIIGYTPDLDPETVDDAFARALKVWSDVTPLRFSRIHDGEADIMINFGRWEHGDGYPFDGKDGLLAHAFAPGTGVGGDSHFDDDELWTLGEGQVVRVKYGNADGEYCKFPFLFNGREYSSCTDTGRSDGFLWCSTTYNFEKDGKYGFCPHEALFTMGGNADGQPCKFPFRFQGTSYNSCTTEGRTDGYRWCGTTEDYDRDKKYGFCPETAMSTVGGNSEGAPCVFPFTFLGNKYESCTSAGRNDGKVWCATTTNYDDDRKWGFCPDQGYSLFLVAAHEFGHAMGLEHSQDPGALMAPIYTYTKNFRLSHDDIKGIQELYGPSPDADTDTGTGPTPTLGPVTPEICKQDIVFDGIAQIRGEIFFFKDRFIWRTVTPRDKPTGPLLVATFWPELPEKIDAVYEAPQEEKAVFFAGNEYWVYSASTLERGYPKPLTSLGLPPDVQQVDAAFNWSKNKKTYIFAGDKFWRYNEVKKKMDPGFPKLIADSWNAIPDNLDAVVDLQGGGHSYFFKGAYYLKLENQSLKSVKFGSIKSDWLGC
T4 sequence (P41245 108-730): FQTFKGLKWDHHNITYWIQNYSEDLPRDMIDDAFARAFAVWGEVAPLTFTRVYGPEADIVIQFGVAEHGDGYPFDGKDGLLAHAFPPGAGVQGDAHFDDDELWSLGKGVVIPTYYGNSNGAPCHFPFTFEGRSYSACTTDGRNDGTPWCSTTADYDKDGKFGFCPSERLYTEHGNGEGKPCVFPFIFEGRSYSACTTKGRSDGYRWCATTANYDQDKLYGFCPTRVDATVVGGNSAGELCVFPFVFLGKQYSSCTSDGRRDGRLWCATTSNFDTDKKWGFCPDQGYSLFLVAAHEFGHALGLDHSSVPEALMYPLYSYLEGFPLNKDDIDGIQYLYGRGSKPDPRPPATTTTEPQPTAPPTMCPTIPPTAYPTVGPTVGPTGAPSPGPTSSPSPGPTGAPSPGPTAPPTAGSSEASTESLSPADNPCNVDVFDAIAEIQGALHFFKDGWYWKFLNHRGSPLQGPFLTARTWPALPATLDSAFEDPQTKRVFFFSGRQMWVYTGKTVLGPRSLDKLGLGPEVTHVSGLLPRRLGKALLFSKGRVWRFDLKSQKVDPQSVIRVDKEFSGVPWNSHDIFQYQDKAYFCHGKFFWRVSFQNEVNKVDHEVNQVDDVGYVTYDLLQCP
T2 sequence (P28862 100-477): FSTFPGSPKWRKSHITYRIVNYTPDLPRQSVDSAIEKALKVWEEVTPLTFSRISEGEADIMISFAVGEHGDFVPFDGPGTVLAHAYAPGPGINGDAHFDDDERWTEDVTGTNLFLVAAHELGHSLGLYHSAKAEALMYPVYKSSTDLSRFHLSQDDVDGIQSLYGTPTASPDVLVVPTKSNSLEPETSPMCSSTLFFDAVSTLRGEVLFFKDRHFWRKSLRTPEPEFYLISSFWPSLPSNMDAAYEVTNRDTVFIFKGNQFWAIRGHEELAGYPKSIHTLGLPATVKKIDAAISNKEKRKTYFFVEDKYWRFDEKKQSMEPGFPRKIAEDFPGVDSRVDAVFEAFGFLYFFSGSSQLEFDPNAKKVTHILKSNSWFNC

Usually IC50 stands for the point on the concentration scale where inhibition reaches its midpoint. Read a high IC50 as lower potency. Regarding `O=C(O)[C@@H]1[C@@H](Cn2nnc3ccc(C(F)(F)F)cc3c2=O)CC[C@H]1C(=O)c1ccc(SCc2ccccc2)cc1` (single isomer, unassigned) [Example 75, (+)-(1RS,2RS,5SR)-2-[4-(Benzylsulphanyl)benzoyl]-5-{[4-oxo-6-(trifluoromethyl)-1,2,3-benzotriazin-3(4H)-yl]methyl}cyclopentanecarboxylic acid], the IC50 is 4200 nM at mouse MMP-2, 5900 nM against mouse MMP-3, 120 nM against mouse MMP-7 and 2700 nM against mouse MMP-9.

Consider `O=C(O)[C@@H]1[C@@H](Cn2nnc3ccc(C(F)(F)F)cc3c2=O)CC[C@H]1C(=O)c1ccc(OCC2CCCCC2)cc1` (single isomer, unassigned) [Example 41, (+)-(1RS,2RS,5SR)-2-[4-(Cyclohexylmethoxy)benzoyl]-5-{[4-oxo-6-(trifluoromethyl)-1,2,3-benzotriazin-3(4H)-yl]methyl}cyclopentanecarboxylic acid], for which the IC50 on mouse MMP-2 was 180 nM; at mouse MMP-3 it was 790 nM; on mouse MMP-7, 27 nM; against mouse MMP-9, 220 nM.

With “(+)-(1RS,2SR,5RS)-2-{[4-Oxo-6-(trifluoromethyl)-1,2,3-benzotriazin-3(4H)-yl]methyl}-5-{4-[(2-phenylethy)sulphanyl]benzoyl}cyclopentanecarboxylic acid [Example 83]”, the IC50 at mouse MMP-2 is 8100 nM; on mouse MMP-3, 5900 nM; on mouse MMP-7, 82 nM; on mouse MMP-9 it was above 40000 nM.

In the case of `Cc1ccc2nnn(C[C@H]3CC[C@@H](C(=O)c4ccc(OCc5cccc(C(F)(F)F)c5)cc4)[C@@H]3C(=O)O)c(=O)c2c1` (single isomer, unassigned) [Example 101, (+)-(1RS,2SR,5RS)-2-[(6-Methyl-4-oxo-1,2,3-benzotriazin-3(4H)-yl)methyl]-5-(4-{[3-(trifluoromethyl)benzyl]oxy}benzoyl)cyclopentanecarboxylic acid], the IC50 against mouse MMP-2 came to 490 nM; at mouse MMP-3, 1300 nM; at mouse MMP-7, 76 nM; on mouse MMP-9, 400 nM.

Consider `Cc1ccc2nnn(C[C@H]3CC[C@@H](C(=O)c4ccc(OCc5ccccc5)cc4)[C@@H]3C(=O)O)c(=O)c2c1` (single isomer, unassigned) [Example 92, (+)-(1RS,2RS,5SR)-2-[4-(Benzyloxy)benzoyl]-5-[(6-methyl-4-oxo-1,2,3-benzotriazin-3(4H)-yl)methyl]cyclopentanecarboxylic acid], for which the IC50 against mouse MMP-2 came out at 57 nM; against mouse MMP-3 it was 200 nM; on mouse MMP-7, 18 nM; on mouse MMP-9, 37 nM.

Consider `Cc1cccc(COc2ccc(C(=O)[C@@H]3CC[C@H](Cn4nnc5ccc(C)cc5c4=O)[C@H]3C(=O)O)cc2)c1` (single isomer, unassigned) [Example 98, (+)-(1RS,2RS,5SR)-2-{4-[(3-Methylbenzyl)oxy]benzoyl}-5-[(6-methyl-4-oxo-1,2,3-benzotriazin-3(4H)-yl)methyl]cyclopentanecarboxylic acid], for which the IC50 came out at 640 nM at mouse MMP-2, 730 nM on mouse MMP-3, 29 nM at mouse MMP-7 and 460 nM at mouse MMP-9.

With `Cc1ccc2nnn(C[C@@H]3CC[C@H](C(=O)c4ccc(OCc5ccccc5)cc4)[C@H]3C(=O)O)c(=O)c2c1` (racemic) [Example 91, (+/−)-(1RS,2RS,5SR)-2-[4-(Benzyloxy)benzoyl]-5-[(6-methyl-4-oxo-1,2,3-benzotriazin-3(4H)-yl)methyl]cyclopentanecarboxylic acid], the IC50 worked out at 95 nM on mouse MMP-2, 400 nM on mouse MMP-3, 22 nM at mouse MMP-7 and 72 nM at mouse MMP-9.

Turning to `O=C(O)[C@H]1[C@H](Cn2nnc3ccccc3c2=O)CC[C@@H]1C(=O)c1ccc(OCC2CCCC2)cc1` (racemic) [Example 4, (+/−)-(1RS,2RS,5SR)-2-[4-(Cyclopentylmethoxy)benzoyl]-5-[(4-oxo-1,2,3-benzotriazin-3(4H)-yl)methyl]cyclopentanecarboxylic acid], the IC50 on mouse MMP-2 was 100 nM; on mouse MMP-3, 1300 nM; against mouse MMP-7, 160 nM; on mouse MMP-9, 61 nM.
